Reference: article PMC9735621, “Synthesis, Biological Evaluation and Computational Studies of New Hydrazide Derivatives Containing 1,3,4-Oxadiazole as Antitubercular Agents” (International Journal of Molecular Sciences, 2022)
Values joined by “and” are separate entries in the source; they are usually repeats but may differ in a detail not shown here. Equal entries are not always repeated.

What was measured:
Assay in all cases: microbe, parasite or virus in culture
Format in all cases: cell-based
[1] = tested on: M. tuberculosis Rifa-R ATCC 35838; settings: Mycobacterium tuberculosis, ATCC35838
[2] = tested on: M. tuberculosis INH-R ATCC35822; settings: Mycobacterium tuberculosis
[3] = tested on: M. tuberculosis Pyr-R ATCC 35828; settings: Mycobacterium tuberculosis, ATCC35828
[4] = tested on: M. tuberculosis Strepto-R ATCC 35820; settings: Mycobacterium tuberculosis, ATCC35820

Compound	MIC [1]	MIC [2]	MIC [3]	MIC [4]
O=C(N/N=C\c1ccccc1)c1nnc(-c2ccccc2)o1 [1h, (Z)-N’-benzyliden-5-phenyl-1,3,4-oxadiazol-2-carbohydrazide]	> 64 µg/mL	> 64 µg/mL	64 µg/mL and 196 µM	> 64 µg/mL
O=C(N/N=C\c1ccc(Cl)cc1)c1nnc(-c2ccccc2)o1 [1i, (Z)-N’-(4-chlorobenzyliden)-5-phenyl-1,3,4-oxadiazol-2-carbohydrazide]	> 64 µg/mL	> 64 µg/mL	32 µg/mL and 97.8 µM	> 64 µg/mL
O=C(N/N=C\c1ccncc1)c1nnc(-c2ccccc2)o1 [1m, (Z)-5-phenyl-N’-(pyridin-4-ylmethylen)-1,3,4-oxadiazol-2-carbohydrazide]	> 64 µg/mL	> 64 µg/mL	16 µg/mL and 54.8 µM	> 64 µg/mL
O=C(N/N=C\c1ccncc1)c1nnc(-c2ccncc2)o1 [1f, (Z)-5-(pyridin-4-yl)-N’-(pyridin-4-ylmethylen)-1,3,4-oxadiazol-2-carbohydrazide]	> 64 µg/mL	> 64 µg/mL	> 64 µg/mL	> 64 µg/mL
O=C(N/N=C\c1ccc(Cl)cc1)c1nnc(-c2ccncc2)o1 [1b, (Z)-N’-(4-chlorobenzyliden)-5-(pyridin-4-yl)-1,3,4-oxadiazol-2-carbohydrazide]	> 64 µg/mL	> 64 µg/mL	> 64 µg/mL	> 64 µg/mL
O=C(N/N=C\c1ccco1)c1nnc(-c2ccccc2)o1 [1n, (Z)-N’-(furan-2-ylmethylen)-5-phenyl-1,3,4-oxadiazol-2-carbohydrazide]	32 µg/mL and 103 µM	> 64 µg/mL	16 µg/mL and 56.6 µM	32 µg/mL and 103 µM
O=C(N/N=C\c1ccccc1)c1nnc(-c2ccncc2)o1 [1a, (Z)-N’-benzyliden-5-(pyridin-4-yl)-1,3,4-oxadiazol-2-carbohydrazide]	> 64 µg/mL	> 64 µg/mL	> 64 µg/mL	> 64 µg/mL
O=C(N/N=C\c1ccccn1)c1nnc(-c2ccncc2)o1 [1e, (Z)-N’-(pyridin-2-ylmethylen)-5-(pyridin-4-yl)-1,3,4-oxadiazol-2-carbohydrazide]	32 µg/mL and 108 µM	> 64 µg/mL	4 µg/mL and 13.6 µM	32 µg/mL and 108 µM
O=C(N/N=C\c1ccccn1)c1nnc(-c2ccccc2)o1 [1l, (Z)-5-phenyl-N’-(pyridin-2-ylmethylen)-1,3,4-oxadiazol-2-carbohydrazide]	32 µg/mL and 54.4 µM	> 64 µg/mL	4 µg/mL and 13.6 µM	64 µg/mL and 109 µM
Cc1ccc(/C=N\NC(=O)c2nnc(-c3ccncc3)o2)cc1 [1c, (Z)-N’-(4-methylbenzyliden)-5-(pyridin-4-yl)-1,3,4-oxadiazol-2-carbohydrazide]	> 64 µg/mL	> 64 µg/mL	> 64 µg/mL	> 64 µg/mL
NNC(=O)c1ccncc1 [INH, Isoniazid, reference compound]	0.25 µg/mL and 1.8 µM	> 64 µg/mL	0.25 µg/mL and 1.8 µM	0.25 µg/mL and 1.8 µM
CO[C@H]1/C=C/O[C@@]2(C)Oc3c(C)c(O)c4c(O)c(c(/C=N/N5CCN(C)CC5)c(O)c4c3C2=O)NC(=O)/C(C)=C\C=C\[C@H](C)[C@H](O)[C@@H](C)[C@@H](O)[C@@H](C)[C@H](OC(C)=O)[C@@H]1C [RIF, reference compound]	> 64 µg/mL	0.25 µg/mL and 0.3 µM	0.25 µg/mL and 0.3 µM	0.25 µg/mL and 0.3 µM
O=C(N/N=C\c1ccc[nH]1)c1nnc(-c2ccccc2)o1 [1k, (Z)-N’-((1H-pyrrol-2-yl)methylen)-5-phenyl-1,3,4-oxadiazol-2-carbohydrazide]	> 64 µg/mL	> 64 µg/mL	4 µg/mL and 14.1 µM	> 64 µg/mL
Cc1ccc(C=NNC(=O)c2nnc(-c3ccccc3)o2)cc1 (mixture of isomers) [1j, (E/Z)-N’-(4-methylbenzyliden)-5-phenyl-1,3,4-oxadiazol-2-carbohydrazide]	> 64 µg/mL	> 64 µg/mL	16 µg/mL and 52.2 µM	> 64 µg/mL
O=C(N/N=C\c1ccc[nH]1)c1nnc(-c2ccncc2)o1 [1d, (Z)-N’-((1H-pyrrol-2-yl)methylen)-5-(pyridin-4-yl)-1,3,4-oxadiazol-2-carbohydrazide]	> 64 µg/mL	> 64 µg/mL	> 64 µg/mL	> 64 µg/mL
O=C(N/N=C\c1ccco1)c1nnc(-c2ccncc2)o1 [1g, (Z)-N’-(furan-2-ylmethylen)-5-(pyridin-4-yl)-1,3,4-oxadiazol-2-carbohydrazide]	> 64 µg/mL	> 64 µg/mL	> 64 µg/mL	> 64 µg/mL
